From patent publication US10376480B2, “Biguanide derivative, a preparation method thereof, and a pharmaceutical composition containing the biguanide derivative as an active ingredient” (Immunomet Therapeutics Inc., priority 2010, dated 2019)
Structures can show the parent of a compound that is named as a salt.

system: not given; assay: not given; conditions: not given

SMILES	melting point [°C]
Cl.N=C(NC(=N)Nc1cccc(Cl)c1)Nc1cccc(Cl)c1 [Example 6, N1,N5-bis(3-chlorophenyl) Biguanide Hydrochloride]	129 to 131
COc1ccc(NC(=N)NC(=N)Nc2ccc(OC)c(Cl)c2)cc1Cl.Cl [Example 8, N1,N5-bis(3-chloro-4-methoxyphenyl) Biguanide Hydrochloride]	203 to 204
Cl.N=C(NCc1ccccc1)NC(=N)NCc1cccnc1 [Example 12, N1-benzyl-N5-(pyridine-3-yl)methyl Biguanide Hydrochloride]	138 to 140
CCCNC(=N)NC(=N)NCCc1ccccc1.Cl [Example 13, N1-(phenethyl)-N5-propyl Biguanide Hydrochloride]	126 to 128
Cl.N=C(NCCc1ccccc1)NC(=N)NCC1CC1 [Example 14, N1-(phenethyl)-N5-cyclopropylmethyl Biguanide Hydrochloride]	143 to 146

Continued, values first:

melting point [°C]	SMILES
201 to 202	CCCN(CCC)C(=N)NC(=N)Nc1cccc(Cl)c1.Cl [Example 31, N1,N1-dipropyl-N5-(3-chloro)phenyl Biguanide Hydrochloride]
250 to 251	Cl.N=C(NC(=N)Nc1cc(Cl)cc(Cl)c1)Nc1cc(Cl)cc(Cl)c1 [Example 10, N1,N5-bis(3,5-dichlorophenyl) Biguanide Hydrochloride]
255 to 257	Cl.N=C(NC(=N)Nc1ccc(Cl)c(Cl)c1)Nc1ccc(Cl)c(Cl)c1 [Example 9, N1,N5-bis(3,4-dichlorophenyl) Biguanide Hydrochloride]
263 to 264	Cl.N=C(NC(=N)Nc1ccc(Cl)cc1)Nc1ccc(Cl)cc1 [Example 5, N1,N5-bis(4-chlorophenyl) Biguanide Hydrochloride]
242 to 243	Cl.N=C(NC(=N)Nc1ccc(Br)cc1)Nc1ccc(Br)cc1 [Example 11, N1,N5-bis(4-bromophenyl) Biguanide Hydrochloride]

system: 5′-AMP-activated protein kinase (AMPK); assay: AMPK activation (AMPKα Thr172 phosphorylation immunoassay) in MCF7 cells; format: cell-based, human; conditions: 50 μM compound, MCF7 cells, 24 hours
Procedure: MCF7 cells derived from human breast cancer cells were used, and an effect of a biguanide derivative on 5′-AMP-activated protein kinase (AMPK) activation was confirmed using an AMPKα immunoassay kit (Invitrogen, catalog No. KHO0651).
The MCF7 cells were put on a 6-well plate and incubated in a DMEM medium containing 10% fetal bovine serum in an incubator to which 5% CO2 was supplied to have a cell count of approximately 5×10^5. 50 μM of derivatives synthesized in the examples were treated to the each culture medium, and the cells were incubated for 24 hours. Subsequently, the cells were lysed by a method presented in the operation manual of the AMPKα immunoassay kit, and 20 μg of cell lysates were yielded through protein assay. A degree of phosphorylation of an AMPKα threonine 172nd residue (Thr172) from the cell lysates were confirmed according to a method presented in the operation manual of the AMPKα immunoassay kit to thereby obtain results.
In addition, an experiment was performed in the same manner as described in Experimental Example 2 using metformin as a control group, and the results of an effect on AMPK activation were compared to the effect on AMPK activation when 1 mM metformin was treated.

SMILES	AMPK Activation (phosphorylated AMPKα Thr172)
CCCCCCNC(=N)NC(=N)NCCC.Cl [Example 1, N1-hexyl-N5-propyl Biguanide Hydrochloride]	35.6
CCCCCCNC(=N)NC(=N)NCC1CCCCC1.Cl [Example 3, N1-hexyl-N5-cyclohexylmethyl Biguanide Hydrochloride]	13.1
CCCCCCNC(=N)NC(=N)NCc1ccccc1.Cl [Example 4, N1-hexyl-N5-benzyl Biguanide Hydrochloride]	15.5
Cl.N=C(NC(=N)Nc1cccc(Cl)c1)Nc1cccc(Cl)c1 [Example 6, N1,N5-bis(3-chlorophenyl) Biguanide Hydrochloride]	4.6
Cl.N=C(NCc1ccccc1)NC(=N)NCc1cccnc1 [Example 12, N1-benzyl-N5-(pyridine-3-yl)methyl Biguanide Hydrochloride]	7.8
CCCNC(=N)NC(=N)NCCc1ccccc1.Cl [Example 13, N1-(phenethyl)-N5-propyl Biguanide Hydrochloride]	36.2
Cl.N=C(NCCc1ccccc1)NC(=N)NCC1CC1 [Example 14, N1-(phenethyl)-N5-cyclopropylmethyl Biguanide Hydrochloride]	31.2

same assay, conditions: 1 mM metformin, MCF7 cells, 24 hours

SMILES	AMPK Activation (phosphorylated AMPKα Thr172)
CN(C)C(=N)N=C(N)N [Metformin HCl, reference compound]	21.5 (@ 1 mM)

same assay, conditions: Homo sapiens, 24 h; 50 μM vs. 0 (cells without compound), MCF7 cells

SMILES	fold induction at 50 µM
CCCCCCNC(=N)NC(=N)NCCC.Cl [Example 1, N1-hexyl-N5-propyl Biguanide Hydrochloride]	6.7
CCCCCCNC(=N)NC(=N)NCC1CCCCC1.Cl [Example 3, N1-hexyl-N5-cyclohexylmethyl Biguanide Hydrochloride]	1.9
CCCCCCNC(=N)NC(=N)NCc1ccccc1.Cl [Example 4, N1-hexyl-N5-benzyl Biguanide Hydrochloride]	6.2
Cl.N=C(NC(=N)Nc1cccc(Cl)c1)Nc1cccc(Cl)c1 [Example 6, N1,N5-bis(3-chlorophenyl) Biguanide Hydrochloride]	0.7
Cl.N=C(NCc1ccccc1)NC(=N)NCc1cccnc1 [Example 12, N1-benzyl-N5-(pyridine-3-yl)methyl Biguanide Hydrochloride]	1.5
CCCNC(=N)NC(=N)NCCc1ccccc1.Cl [Example 13, N1-(phenethyl)-N5-propyl Biguanide Hydrochloride]	6.8
Cl.N=C(NCCc1ccccc1)NC(=N)NCC1CC1 [Example 14, N1-(phenethyl)-N5-cyclopropylmethyl Biguanide Hydrochloride]	5.9

same assay, conditions: Homo sapiens, MCF7, 24 h, read-out: AMPK Activation fold

SMILES	fold induction at 1000 µM
CN(C)C(=N)N=C(N)N [Metformin HCl, reference compound]	3.2

system: HCT116 cells; assay: Inhibition of cancer cell proliferation (MTT, GIC50); format: cell-based; conditions: Homo sapiens, HCT-116, 48 hours incubation
Procedure: HCT116 cells derived from human colorectal cancer were used, and an effect of a biguanide derivative on the inhibition of cancer cell proliferation was confirmed by measuring a concentration value (cell growth inhibition concentration, GIC50) at which 50% of the cell growth was inhibited using a 3-(4,5-dimethylthiazol-2-yl)-2,5-diphenytetrazolium bromide (MTT) reagent.
First, HCT116 cells were put on a 96-well plate and cultured in a DMEM medium containing 10% bovine serum for 24 hours to each have cell count of approximately 5000. Subsequently, to obtain the GIC50 value of each compound, 100 μM (or 200 μM), 25 μM, 6.25 μM, 1.56 μM or 0.39 μM of the compound was treated to each culture medium and then incubated for 48 hours. To confirm living cells after treatment with the compound, MTT was added to each culture medium and further incubated for 3 hours. Generated formazane crystal was dissolved using dimethyl sulfoxide (DMSO) and absorbance of the solution was measured at 560 nm. After the 48-hour incubation, a ratio of a cell count cultured on a well plate not treated with the compound to a cell count on a well plate treated with compounds synthesized in the examples was indicated as cell viability (%) according to each administered concentration. A cell viability curve was plotted using the cell viability (%), and the calculated concentration value (GIC50) of the compound, at which 50% of the growth was inhibited was, to confirm an effect on the inhibition of cancer cell proliferation.

SMILES	IC50 [µM]
CCCCCCNC(=N)NC(=N)NCCC.Cl [Example 1, N1-hexyl-N5-propyl Biguanide Hydrochloride]	23.8
CCCCCCNC(=N)NC(=N)NCC1CCCCC1.Cl [Example 3, N1-hexyl-N5-cyclohexylmethyl Biguanide Hydrochloride]	> 100
CCCCCCNC(=N)NC(=N)NCc1ccccc1.Cl [Example 4, N1-hexyl-N5-benzyl Biguanide Hydrochloride]	8.4
Cl.N=C(NC(=N)Nc1cccc(Cl)c1)Nc1cccc(Cl)c1 [Example 6, N1,N5-bis(3-chlorophenyl) Biguanide Hydrochloride]	> 100
COc1ccc(NC(=N)NC(=N)Nc2ccc(Cl)cc2)cc1 [Example 7, N1-(4-chloro)phenyl-N5-(4-methoxy)phenyl Biguanide Hydrochloride]	18.3
COc1ccc(NC(=N)NC(=N)Nc2ccc(OC)c(Cl)c2)cc1Cl.Cl [Example 8, N1,N5-bis(3-chloro-4-methoxyphenyl) Biguanide Hydrochloride]	17
Cl.N=C(NCc1ccccc1)NC(=N)NCc1cccnc1 [Example 12, N1-benzyl-N5-(pyridine-3-yl)methyl Biguanide Hydrochloride]	> 200
CCCNC(=N)NC(=N)NCCc1ccccc1.Cl [Example 13, N1-(phenethyl)-N5-propyl Biguanide Hydrochloride]	47.6
Cl.N=C(NCCc1ccccc1)NC(=N)NCC1CC1 [Example 14, N1-(phenethyl)-N5-cyclopropylmethyl Biguanide Hydrochloride]	47
CN(C)C(=N)N=C(N)N [Metformin HCl, reference compound]	2170

The next compounds have a lower IC50 than those just listed; values first:

IC50 [µM]	SMILES
7.8	CCCCCCN(CCCCCC)C(=N)NC(=N)Nc1cccc(Cl)c1 [Example 34, N1,N1-dihexyl-N5-(3-chloro)phenyl Biguanide Hydrochloride]
7.6	CCCN(CCC)C(=N)NC(=N)Nc1cccc(Cl)c1.Cl [Example 31, N1,N1-dipropyl-N5-(3-chloro)phenyl Biguanide Hydrochloride]
6.3	Cl.N=C(NC(=N)Nc1cc(Cl)cc(Cl)c1)Nc1cc(Cl)cc(Cl)c1 [Example 10, N1,N5-bis(3,5-dichlorophenyl) Biguanide Hydrochloride]
5.9	Cl.N=C(NC(=N)Nc1ccc(Cl)c(Cl)c1)Nc1ccc(Cl)c(Cl)c1 [Example 9, N1,N5-bis(3,4-dichlorophenyl) Biguanide Hydrochloride]
3.2	Cl.N=C(NC(=N)Nc1ccc(Cl)cc1)Nc1ccc(Cl)cc1 [Example 5, N1,N5-bis(4-chlorophenyl) Biguanide Hydrochloride]
3.1	Cl.N=C(NC(=N)Nc1ccc(Br)cc1)Nc1ccc(Br)cc1 [Example 11, N1,N5-bis(4-bromophenyl) Biguanide Hydrochloride]
